Laboratory results reported in US7459446B2, “Treatment of diabetes with copper binding compounds” (priority 1998, dated 2008).
Read-outs that look alike come from different tables or passages of the source. Marks after values point to notes of the source that are not given here. Blank lines part the entries; values can stand above or below the compound they belong to.

Key:
[1] = test system: streptozocin-diabetic rat (STZ rat); experiment: First preclinical study: intravenous streptozotocin diabetic rat, 8 months; format: in vivo, Wistar rats; details: for Survivors at week 32 / mean weight change amongst surviving study animals: rat, in vivo; for Glucose: week 4, mean±SD; for Glucose / HbA1c: 50 mg/L in drinking water; for HbA1c: week 32, mean±SD
[2] = cited from earlier work
fructosamine oxidase [3] = experiment: fructosamine oxidase inhibition assay in human sera (ferricytochrome c, g-BSA substrate); format: biochemical
From the text: The effectiveness of the inhibitor was expressed not by an equilibrium constant but by a velocity constant (K) which determined the fraction of the enzyme inhibited in a given period of time by a certain concentration of inhibitor.

fructosamine oxidase [4] = experiment: as above; format: biochemical; details: read-out: IC50 (concentration of inhibitor causing 50% inactivation of the enzyme)
[5] = test system: streptozocin-diabetic rat (STZ rat); experiment: Second preclinical study: intraperitoneal streptozotocin diabetic rat, 6 months; format: in vivo, Wistar rats; design: Mean ± SEM weight gain: unit not given here; details: for Mean ± SEM weight gain: beginning to end of the 24 week period; for effect on weight gain (in words): compared with untreated STZ diabetic control rats, 6-month period; for % with cataract / No with cataract: gross cataract formation; for % with cataract / No with cataract / No with severe fibrosis: week 24; for No with severe fibrosis: gross myocardial fibrosis; for mortality rate: rat, in vivo
[6] = cited from earlier work; for bioavailability: oral administration
[7] = solutions exposed to light at room temperature, 24 hours; cited from earlier work
[8] = beagle dogs, cited from earlier work
[9] = fresh human sera, 0-1,000 μM inhibitor, 0.05 M TES buffer pH 7.4, 37° C., 5 minutes

Compound: NNc1nncc2ccccc12 [hydralazine]
Survivors at week 32 [1]: 6
mean weight change amongst surviving study animals [1]: −11.0%
Glucose [1]: 35.7 ± 9.5 mmol/L
HbA1c [1]: 8.65 ± 1.18%
bioavailability ([2]; man, oral administration): 26-55%
drug excreted in the urine unchanged ([2]; over 24 hours after oral administration): 2.0-3.6%

IC50 (fructosamine oxidase [4]; [9]): 2.29 µM
Compound: N[C@@H](Cc1c[nH]cn1)C(=O)O [histidine]
K (velocity/rate constant) (fructosamine oxidase [3]; 1.0 μM inhibitor): 0.0554 min⁻¹

Compound: CC(=O)N[C@@H](CS)C(=O)O [acetylcysteine]
K (velocity/rate constant) (fructosamine oxidase [3]; 1.0 μM inhibitor): 0.1677 min⁻¹
IC50 (fructosamine oxidase [4]; pH 7.4): 0.83 µM
Survivors at week 32 [1]: 7
mean weight change amongst surviving study animals [1]: −8.1%
Glucose [1]: 37.8 ± 5.2 mmol/L
HbA1c [1]: 9.47 ± 1.23%

Compound: NNC(N)=O [semicarbazide]
K (velocity/rate constant) (fructosamine oxidase [3]): 0.0276* min^−1
IC50 (fructosamine oxidase [4]; pH 7.4): 45 µM

Compound: C[C@H](CS)C(=O)N1CCC[C@H]1C(=O)O [captopril]
HbA1c ([5]; Week 4, mean±SD): 8.5 ± 0.9
HbA1c ([5]; Week 12, mean±SD): 9.2 ± 1.1
HbA1c ([5]; Week 24, mean±SD): 9.4 ± 01.3
Mean ± SEM weight gain [5]: 60.7 ± 20.7
effect on weight gain (in words) [5]: ineffective
% with cataract [5]: 25%
No with cataract [5]: 2
No with severe fibrosis [5]: 6
mortality rate [5]: 0%
K (velocity/rate constant) (fructosamine oxidase [3]; 1.0 μM inhibitor): 0.0259 min⁻¹
IC50 (fructosamine oxidase [4]; pH 7.4): 1.78 µM
binding in vivo to albumin and other plasma proteins ([6]; in vivo): almost completely bound
bioavailability [6]: approximately 65%

IC50 (fructosamine oxidase [4]; [9]): 4.25 µM
Compound: c1cnc2c(c1)ccc1cccnc12 [o-phenathroline]
K (velocity/rate constant) (fructosamine oxidase [3]; 1.0 μM inhibitor): 0.0385 min⁻¹

Compound: O=C(O)CN(CCN(CC(=O)O)CC(=O)O)CC(=O)O [EDTA, ethylenediamine tetraacetic acid]
K (velocity/rate constant) (fructosamine oxidase [3]; 10.0 μM inhibitor (*)): 0.0755* min^−1
IC50 (fructosamine oxidase [4]; pH 7.4): 15.7 µM
bioavailability [6]: less than 5%
Survivors at week 32 [1]: 5
mean weight change amongst surviving study animals [1]: +1.2%
Glucose [1]: 39.0 ± 6.04 mmol/L
HbA1c [1]: 9.30 ± 0.63%

Compound: N/N=C(\N)NN [diaminoguanidine]
K (velocity/rate constant) (fructosamine oxidase [3]): 0.1340 min⁻¹
IC50 (fructosamine oxidase [4]; pH 7.4): 0.36 µM

IC50 (fructosamine oxidase [4]; [9]): 231 µM
Compound: N=C(N)NN [aminoguanidine]
K (velocity/rate constant) (fructosamine oxidase [3]; 10.0 μM inhibitor (*)): 0.0067* min^−1

Compound: CC(=O)N(O)CCCCCNC(=O)CCC(=O)N(O)CCCCCNC(=O)CCC(=O)N(O)CCCCCN [desferrioxamine]
K (velocity/rate constant) (fructosamine oxidase [3]; 10.0 μM inhibitor (*)): 0.0109* min^−1
IC50 (fructosamine oxidase [4]; pH 7.4): 40.6 µM

IC50 (fructosamine oxidase [4]; [9]): 217 µM
Compound: NCCCC[C@H](N[C@@H](CCc1ccccc1)C(=O)O)C(=O)N1CCC[C@H]1C(=O)O [lisinopril]
K (velocity/rate constant) (fructosamine oxidase [3]; 1.0 μM inhibitor): 0.0174 min⁻¹

IC50 (fructosamine oxidase [4]; [9]): 13.6 µM
Compound: NC(CO)C(=O)NNCc1ccc(O)c(O)c1O (centres unmarked) [benserazide]
K (velocity/rate constant) (fructosamine oxidase [3]; 10.0 μM inhibitor (*)): 0.0095* min^−1

Compound: NNc1ccccc1 [phenylhydrazine]
K (velocity/rate constant) (fructosamine oxidase [3]): 0.1160 min⁻¹
IC50 (fructosamine oxidase [4]; pH 7.4): 0.81 µM

IC50 (fructosamine oxidase [4]; [9]): 1.59 µM
Compound: NNC(=O)C(=O)NN [oxalic dyhydrazide]
K (velocity/rate constant) (fructosamine oxidase [3]; 1.0 μM inhibitor): 0.0542 min⁻¹

IC50 (fructosamine oxidase [4]; [9]): 1.06 µM
Compound: CC(=O)N[C@H](C(=O)O)C(C)(C)S [acetylpenicillamine]
K (velocity/rate constant) (fructosamine oxidase [3]; 1.0 μM inhibitor): 0.0811 min⁻¹

IC50 (fructosamine oxidase [4]; [9]): 3.95 µM
Compound: CCOC(=O)[C@H](CCc1ccccc1)N[C@@H](C)C(=O)N1CCC[C@H]1C(=O)O [enalapril]
K (velocity/rate constant) (fructosamine oxidase [3]; 1.0 μM inhibitor): 0.0326 min⁻¹

Compound: C[C@@](Cc1ccc(O)c(O)c1)(NN)C(=O)O [carbidopa]
HbA1c ([5]; Week 4, mean±SD): 9.0 ± 1.0
HbA1c ([5]; Week 12, mean±SD): 9.6 ± 0.7
HbA1c ([5]; Week 24, mean±SD): 9.9 ± 1.1
Mean ± SEM weight gain [5]: 33.7 ± 20.4
effect on weight gain (in words) [5]: ineffective
% with cataract [5]: 25%
No with cataract [5]: 2
No with severe fibrosis [5]: 2
mortality rate [5]: 0%
K (velocity/rate constant) (fructosamine oxidase [3]; 1.0 μM inhibitor): 0.1496 min⁻¹
IC50 (fructosamine oxidase [4]; pH 7.4): 0.5 µM
oxidative degradation [7]: 50%
absolute bioavailability ([8]; oral): 88%
biological half-life [8]: 5 hours
oral absorption [8]: almost complete
